Reference: publication PMC3827244, “An Ultrasensitive High Throughput Screen for DNA Methyltransferase 1-Targeted Molecular Probes” (PLoS ONE, 2013)

Experiments:
[1] = target: T1, RFTS-containing DNMT1 (amino acids 351–1616) (Homo sapiens, UniProt P26358); experiment: Compound selectivity, endonuclease-coupled DNA methylation assay; assay type: biochemical; details: 20 µM inhibitor, 20 nM methyltransferase, 0.25 mM SAM
T1 construct: RFTS-containing DNMT1, amino acids 351–1616; made in house
Method: (§1) Triplicate assays (100 µl) containing 0.25 mM SAM, 0.2 µM oligonucleotide 8006, 0.8 U GlaI, 20 nM methyltransferase, 20 µM inhibitor and 1% DMSO were conducted in 96 well plates. Following enzyme addition, assay plates were incubated at 37°C for 75 min and fluorescence was measured in a BioTek Neo plate reader. A control containing only GlaI was subtracted from each assay. […] Percent activity was determined by comparing product formation to a DMSO containing control assay.

CD-DNMT3A/DNMT3L complex = target: T2, CD-DNMT3A/DNMT3L complex (Homo sapiens, UniProt Q9Y6K1); experiment: as above; assay type: biochemical; details: 20 µM inhibitor; for Percent activity, DNMT3A/DNMT3L Complex: 20 nM methyltransferase, 0.25 mM SAM
T2 construct: CD-DNMT3A; amino acids 611–912; His tag (N); made in house; host or cells: Rosetta 2(DE3)pLysS (E. coli) for CD-DNMT3A
T2 sequence (Q9Y6K1 611-912): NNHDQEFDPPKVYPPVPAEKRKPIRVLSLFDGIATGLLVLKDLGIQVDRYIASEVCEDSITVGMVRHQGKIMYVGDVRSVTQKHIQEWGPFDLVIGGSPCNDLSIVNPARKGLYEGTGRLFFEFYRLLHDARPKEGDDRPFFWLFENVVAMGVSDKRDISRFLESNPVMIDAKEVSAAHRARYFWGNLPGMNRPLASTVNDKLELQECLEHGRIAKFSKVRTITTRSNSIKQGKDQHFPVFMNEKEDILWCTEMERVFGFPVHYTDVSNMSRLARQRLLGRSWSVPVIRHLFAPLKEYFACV
T2 sequence (Q9UJW3 whole entry partner, the tested form may be a part): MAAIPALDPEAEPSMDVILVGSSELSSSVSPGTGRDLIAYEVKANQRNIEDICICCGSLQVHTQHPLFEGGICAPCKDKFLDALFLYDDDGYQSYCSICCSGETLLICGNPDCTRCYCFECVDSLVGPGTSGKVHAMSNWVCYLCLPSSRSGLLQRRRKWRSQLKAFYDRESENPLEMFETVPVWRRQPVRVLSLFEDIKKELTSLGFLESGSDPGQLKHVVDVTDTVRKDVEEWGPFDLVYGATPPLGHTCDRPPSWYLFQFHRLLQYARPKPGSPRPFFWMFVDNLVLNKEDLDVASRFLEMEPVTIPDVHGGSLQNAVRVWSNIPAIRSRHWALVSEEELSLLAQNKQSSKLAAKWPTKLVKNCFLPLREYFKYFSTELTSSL
Method: as §1

GlaI = GlaI counterscreen; assay type: biochemical; details: 11 µM test compound; for Initial Velocity: 5 nM oligonucleotide 8007, 0.2 U GlaI; for Percent Activity: compared to DMSO
Method: GlaI inhibitors were identified and excluded using a fluorescence-based assay. Duplicate assays (80 µl) were conducted in 96 well plates. Assays contained 10 mM Tris-HCl pH 7.5, 100 mM potassium glutamate, 1 mM MgCl2, 1 mM DTT, 0.1 mg/mL BSA, 5% glycerol, 5 nM oligonucleotide 8007 (5′-FAM-CCTATGmCGm[…]mCGmCATAGG-3′-Iowa Black, where mC denotes 5-methyldeoxycytidylate residues, Integrated DNA Technologies, Coralville, IA), 0.2 U GlaI, 11 µM test compound and 1.2% DMSO. Reactions were initiated by the addition of GlaI. Cleavage of the oligonucleotide releases the 5′ FAM fluorophore from the 3′ Iowa Black quencher and generates fluorescence. A control reaction in the absence of GlaI was subtracted from each assay condition to account for background fluorescence of the internally quenched substrate. Corrected time courses were fitted in Prism.

[2] = target: T3, DNMT1 (amino acids 621–1616) (Homo sapiens, UniProt P26358); experiment: Concentration-dependence (IC50), endonuclease-coupled DNA methylation assay; assay type: biochemical; details: for IC50: 10 µM SAM, 20 nM oligonucleotide 8006, 2 nM DNMT1, 95% confidence interval in brackets
T3 construct: RFTS-lacking DNMT1, amino acids 621–1616; made in house
T3 sequence (P26358 621-1616): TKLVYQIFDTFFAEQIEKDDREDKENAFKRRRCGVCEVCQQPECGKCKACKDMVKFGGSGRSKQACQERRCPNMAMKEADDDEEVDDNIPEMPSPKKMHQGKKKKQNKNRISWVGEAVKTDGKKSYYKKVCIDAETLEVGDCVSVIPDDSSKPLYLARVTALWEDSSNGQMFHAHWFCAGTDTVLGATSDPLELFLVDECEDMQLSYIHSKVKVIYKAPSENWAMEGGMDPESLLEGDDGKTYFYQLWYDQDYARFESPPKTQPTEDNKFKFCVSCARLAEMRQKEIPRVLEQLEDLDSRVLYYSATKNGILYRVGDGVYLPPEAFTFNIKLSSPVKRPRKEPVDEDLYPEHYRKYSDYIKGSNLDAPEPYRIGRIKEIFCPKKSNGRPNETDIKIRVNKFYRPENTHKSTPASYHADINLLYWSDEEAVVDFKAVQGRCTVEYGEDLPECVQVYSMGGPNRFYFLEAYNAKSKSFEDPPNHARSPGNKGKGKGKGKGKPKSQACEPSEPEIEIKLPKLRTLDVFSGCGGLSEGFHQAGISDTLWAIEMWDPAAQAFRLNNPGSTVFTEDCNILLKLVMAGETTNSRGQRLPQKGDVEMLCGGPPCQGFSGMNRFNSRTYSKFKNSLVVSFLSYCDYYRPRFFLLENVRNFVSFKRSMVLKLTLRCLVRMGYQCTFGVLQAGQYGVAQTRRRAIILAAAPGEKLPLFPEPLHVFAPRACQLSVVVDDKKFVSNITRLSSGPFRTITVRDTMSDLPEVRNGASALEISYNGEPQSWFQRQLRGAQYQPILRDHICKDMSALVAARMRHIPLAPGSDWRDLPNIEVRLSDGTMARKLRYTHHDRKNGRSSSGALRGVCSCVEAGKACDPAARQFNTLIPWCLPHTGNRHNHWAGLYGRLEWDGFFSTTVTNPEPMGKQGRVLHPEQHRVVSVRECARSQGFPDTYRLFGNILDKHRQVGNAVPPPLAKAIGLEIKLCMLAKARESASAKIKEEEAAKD
Method: IC50 values for each validated direct inhibitor were determined under identical assay conditions (10 µM SAM and 20 nM oligonucleotide 8006) using the endonuclease-coupled DNA methylation assay in triplicate (80 µl) in a 96 well format. Assays contained 0.8 U GlaI, 2 nM DNMT1 (amino acids 621–1616) and 0.94% DMSO with inhibitor concentration varied from 0 to 10 µM. FAM fluorescence was measured in a Biotek Neo plate reader over the course of 45 minutes. A control containing GlaI in the absence of DNMT1 was subtracted from each assay condition. Corrected assay traces were fitted in Prism and percent activity was determined by comparing to a DMSO containing control. IC50 values were determined by fitting the percent activity data using a unity Hill slope in Prism.

[3] = tested on: Rgs6−/− mouse embryonic fibroblasts; parameters: method as in PMID 23995786; details: murine Rgs6−/− mouse embryonic fibroblasts; cited from earlier work
[4] = tested on: MCF-7 breast cancer cells; details: cited from earlier work
DNMT1 = details: cited from earlier work
HepG2 cells = tested on: HepG2 cells; parameters: method as in PMID 22939515; details: cited from earlier work

T1 sequence (P26358 351-1616): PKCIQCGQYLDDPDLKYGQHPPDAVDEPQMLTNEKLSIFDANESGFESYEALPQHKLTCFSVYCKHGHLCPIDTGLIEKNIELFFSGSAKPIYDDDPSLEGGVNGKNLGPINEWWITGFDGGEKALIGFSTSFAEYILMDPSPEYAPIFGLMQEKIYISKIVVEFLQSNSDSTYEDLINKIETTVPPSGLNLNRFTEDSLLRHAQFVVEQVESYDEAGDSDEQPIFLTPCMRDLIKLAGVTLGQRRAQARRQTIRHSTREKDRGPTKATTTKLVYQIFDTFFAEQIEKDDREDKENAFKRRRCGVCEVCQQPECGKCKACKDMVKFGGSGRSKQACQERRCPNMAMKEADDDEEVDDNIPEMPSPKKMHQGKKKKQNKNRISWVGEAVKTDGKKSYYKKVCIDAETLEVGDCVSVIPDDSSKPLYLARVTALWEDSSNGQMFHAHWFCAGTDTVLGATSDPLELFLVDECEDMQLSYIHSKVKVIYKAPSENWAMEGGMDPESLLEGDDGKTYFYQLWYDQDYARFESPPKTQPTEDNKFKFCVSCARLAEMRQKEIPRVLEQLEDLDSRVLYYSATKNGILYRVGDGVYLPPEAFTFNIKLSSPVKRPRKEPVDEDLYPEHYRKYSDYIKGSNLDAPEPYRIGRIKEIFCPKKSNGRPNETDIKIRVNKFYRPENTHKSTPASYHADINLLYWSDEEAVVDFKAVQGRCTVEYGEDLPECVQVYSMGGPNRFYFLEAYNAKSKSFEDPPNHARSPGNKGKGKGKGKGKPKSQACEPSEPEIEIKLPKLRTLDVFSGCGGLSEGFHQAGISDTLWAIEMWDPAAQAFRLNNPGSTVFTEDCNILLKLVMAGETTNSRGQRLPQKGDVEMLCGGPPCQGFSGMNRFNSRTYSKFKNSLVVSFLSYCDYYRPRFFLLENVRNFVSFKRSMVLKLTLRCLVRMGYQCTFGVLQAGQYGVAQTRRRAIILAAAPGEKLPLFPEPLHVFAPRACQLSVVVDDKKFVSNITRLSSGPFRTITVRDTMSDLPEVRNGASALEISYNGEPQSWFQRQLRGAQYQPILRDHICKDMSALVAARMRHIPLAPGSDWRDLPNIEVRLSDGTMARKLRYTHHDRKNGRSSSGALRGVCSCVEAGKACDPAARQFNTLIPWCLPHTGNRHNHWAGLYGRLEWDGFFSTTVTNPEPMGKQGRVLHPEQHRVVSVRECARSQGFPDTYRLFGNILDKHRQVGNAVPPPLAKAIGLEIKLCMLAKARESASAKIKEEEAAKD

SMILES	Percent activity, RFTS-containing Dnmt1 [1] [%]	Percent activity, DNMT3A/DNMT3L Complex (CD-DNMT3A/DNMT3L complex) [%]	Initial Velocity (GlaI) [RFU/min]	Percent Activity (GlaI) [%]	IC50 [2] [µM]	selectivity for DNMT1 over DNMT3A/DNMT3L (CD-DNMT3A/DNMT3L complex) [fold]	DNMT1-dependent oncogenic transformation and apoptosis [3]	expression of methylation-silenced genes [4]	potency relative to alizarin (cmpd 26) ([2]; more potent than alizarin) [fold]	mechanism of inhibition (DNMT1)	selectivity for DNMT1 versus DNMT3A/DNMT3L (in words) (CD-DNMT3A/DNMT3L complex)	levels of DNA methylation (HepG2 cells)
O=C(O)C(S)C(S)C(=O)O (centres unmarked) [Cmpd 51]	24±11	61±12	25 ± 1	89								
O=C(O)c1cc(O)c2c(c1)[C@@H]([C@H]1c3cc(C(=O)O)cc(O)c3C(=O)c3c(O[C@H]4O[C@H](CO)[C@@H](O)[C@H](O)[C@H]4O)cccc31)c1cccc(O[C@H]3O[C@H](CO)[C@@H](O)[C@H](O)[C@H]3O)c1C2=O [Cmpd 22]	40±10	88±11	24 ± 1	86	0.47							
CC(=O)NCCc1ccc(O)c(-c2c(O)c(O)c3c(c2O)C(=O)c2c(cc(O)c(C(=O)O)c2C(=O)O)C3=O)c1 [Cmpd 40, Laccaic acid A]	21±9	80±10	22 ± 3	79		~4	reverses DNMT1-dependent oncogenic transformation and apoptosis	reactivates expression of a set of methylation-silenced genes	~5	DNA-competitive inhibitor		
CC1/C=C/C=C/C=C/C=C/C=C/C=C/C=C/C(O[C@@H]2O[C@H](C)[C@H](O)[C@@H](O)[C@@H]2N)CC(O)C(C(=O)O)C(O)CC(=O)CC(O)CC(O)CC(O)CC(=O)CCCC(=O)CC(=O)OC1C(C)CC(C)C(O)CC(=O)c1ccc(N)cc1 (some centres unmarked) [Cmpd 24]		49±16	27 ± 1		0.4							
O=c1c(O)c(-c2ccc(O)c(O)c2)oc2c(O)c(O)cc(O)c12 [Cmpd 33]	38±13	74±13	27 ± 2									
O=C(O)c1cc(O)c2c(c1)[C@@H]([C@@H]1c3cc(C(=O)O)cc(O)c3C(=O)c3c(O[C@H]4O[C@H](CO)[C@@H](O)[C@H](O)[C@H]4O)cccc31)c1cccc(O[C@H]3O[C@H](CO)[C@@H](O)[C@H](O)[C@H]3O)c1C2=O [Cmpd 36]	30±12	83±15	28 ± 1									
Oc1cc(Cl)ccc1Oc1ccc(Cl)cc1Cl [Cmpd 13, triclosan]	25±8	23±10	28 ± 2								nonselective	reduced the levels of DNA methylation
O=C1c2ccccc2C(=O)c2c1ccc(O)c2O [Cmpd 26, alizarin]	51±10	49±12	22 ± 1	79							nonselective	
CSc1nc2cc(Cl)c(Oc3cccc(Cl)c3Cl)cc2[nH]1 [Cmpd 29, triclabendazole]		110±5	22 ± 2	79							exhibited selectivity	
